Measurements taken from patent US4986988A, “Isolation and structural elucidation of the cytostatic linear depsipeptides dolastatin 13 and dehydrodolastatin 13” (priority 1989, dated 1991).
Converted amounts (≈) assume the structure as drawn. Read-outs that look alike come from different tables or passages of the source.

Test system: P388 lymphocytic leukemia (PS System) cell line
Experiment: P388 lymphocytic leukemia in vitro cell line growth inhibition (PS bioassay)
Format: cell-based, murine
Experimental: Because of the dolastatin's potency, the sea hare seems to require only vanishingly small quantities (about 1 mg each from 100 kg), making isolation and structural elucidation of these peptides exceptionally challenging. Later another substance was isolated and determined to be a unique linear pentapeptide and was denominated "dolastatin 10".

Compound: C/C=C1/NC(=O)C(NC(=O)C(NC(=O)C(CO)OC)C(C)C)C(C)OC(=O)C(C(C)C)NC(=O)C(Cc2ccccc2)N(C)C(=O)C(Cc2ccccc2)N2C(=O)C(CCC2O)NC1=O (centres unmarked) [dolastatin 13]
- ED50: 1.3 ng/mL (≈ 1.43 nM)
- ED50 (listed as Dolastatin 13): 13 ng/mL (≈ 14.3 nM)
